The results in this text go back to US20250353855A1, “HETEROCYCLIC AND HETEROARYL COMPOUNDS FOR TREATING HUNTINGTON'S DISEASE” (PTC THERAPEUTICS, INC., priority 2022, published 2025).

The term IC50 denotes the concentration that gives 50% inhibition.

Molecules are shown by their SMILES.

The test system of the first test is Endogenous Huntingtin Protein. As to the kind of experiment: Endogenous Huntingtin Protein Assay (ELISA-based MSD electrochemiluminescence). The following applies: MSD plates coated with MW1 (expanded polyglutamine) or MAB2166 capture antibody; lysates. In kind it is cell-based. The procedure, abridged: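 Electrochemiluminescence sandwich ELISA for endogenous huntingtin: capture with MW1 (expanded polyglutamine) or MAB2166 antibody at 1 μg/mL, samples incubated overnight at 4° C. Detection with rabbit monoclonal #5656S then goat anti-rabbit SULFO-TAG antibody (each 0.25 μg/mL, 1 h room temperature), read on MSD imager.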
(In an ELISA, binding on a coated surface is turned into a signal by an enzyme label.)
Compound `CC1(C)C[C@H](N2CCc3cc(-c4cc5ncccc5cc4O)nnc32)[C@H](F)C(C)(C)N1` [Cpd 80, 7-{7-[(3S,4S)-3-fluoro-2,2,6,6-tetramethylpiperidin-4-yl]-6,7-dihydro-5H-pyrrolo[2,3-c]pyridazin-3-yl}quinolin-6-ol] displayed an IC50 of less than 100 nM.

`Cc1ncc2cc(-c3cc4ccn([C@H]5CC(C)(C)NC(C)(C)[C@H]5F)c4nn3)c(O)cc2n1` [Cpd 15, 6-{7-[(3S,4S)-3-fluoro-2,2,6,6-tetramethylpiperidin-4-yl]-7H-pyrrolo[2,3-c]pyridazin-3-yl}-2-methylquinazolin-7-ol] came in with an IC50 of less than 100 nM.

The same test, now with this note: MSD plates coated with MW1 (expanded polyglutamine) or MAB2166 capture antibody; lysates; read-out: IC50.
Take `Cc1cc(=O)c2cc(O)c(-c3cc4c(nn3)N([C@H]3CC(C)(C)NC(C)(C)[C@H]3F)CC4)cc2o1` [Cpd 83, 7-{7-[(3S,4S)-3-fluoro-2,2,6,6-tetramethylpiperidin-4-yl]-6,7-dihydro-5H-pyrrolo[2,3-c]pyridazin-3-yl}-6-hydroxy-2-methyl-4H-1-benzopyran-4-one]: the IC50 is less than 100 nM.

Regarding `Cc1nc2cc(-c3cc4ccn([C@H]5CC(C)(C)NC(C)(C)[C@H]5F)c4nn3)c(O)c(F)c2o1` [Cpd 102, 7-fluoro-5-{7-[(3S,4S)-3-fluoro-2,2,6,6-tetramethylpiperidin-4-yl]-7H-pyrrolo[2,3-c]pyridazin-3-yl}-2-methyl-1,3-benzoxazol-6-ol], the IC50 is less than 100 nM.

Take `Cn1nc2cc(O)c(-c3cc4ccn([C@H]5CC(C)(C)NC(C)(C)[C@H]5F)c4nn3)cc2n1` [Cpd 37, 6-{7-[(3S,4S)-3-fluoro-2,2,6,6-tetramethylpiperidin-4-yl]-7H-pyrrolo[2,3-c]pyridazin-3-yl}-2-methyl-2H-benzotriazol-5-ol]: the 50% inhibitory concentration (IC50) was less than 100 nM.

For `CC1(C)C[C@H](n2ccc3cc(-c4cc5cc(F)cnc5cc4O)nnc32)[C@H](F)C(C)(C)N1` [Cpd 94, 3-fluoro-6-{7-[(3S,4S)-3-fluoro-2,2,6,6-tetramethylpiperidin-4-yl]-7H-pyrrolo[2,3-c]pyridazin-3-yl}quinolin-7-ol], the IC50 is less than 100 nM.

Take `CC1(C)C[C@H](n2ccc3cc(-c4cc5ncccc5cc4O)nnc32)[C@H](F)C(C)(C)N1` [Cpd 17, 7-{7-[(3S,4S)-3-fluoro-2,2,6,6-tetramethylpiperidin-4-yl]-7H-pyrrolo[2,3-c]pyridazin-3-yl}quinolin-6-ol]: the concentration for half-maximal inhibition (IC50) is less than 100 nM.

Take `CC1(C)C[C@H](N2CCc3cc(-c4cc5cccnc5cc4O)nnc32)[C@H](F)C(C)(C)N1` [Cpd 53, 6-{7-[(3S,4S)-3-fluoro-2,2,6,6-tetramethylpiperidin-4-yl]-6,7-dihydro-5H-pyrrolo[2,3-c]pyridazin-3-yl}quinolin-7-ol]: the IC50 was less than 100 nM.

Consider `Cc1nc2cc(O)c(-c3cc4c(nn3)N([C@@H]3CC5(CCC5)NC[C@@H]3F)CC4)cc2s1` (single isomer, unassigned) [Cpd 61, 6-{7-[(7S,8R)-7-fluoro-5-azaspiro[3.5]nonan-8-yl]-6,7-dihydro-5H-pyrrolo[2,3-c]pyridazin-3-yl}-2-methyl-1,3-benzothiazol-5-ol or 6-{7-[(7R,8S)-7-fluoro-5-azaspiro[3.5]nonan-8-yl]-6,7-dihydro-5H-pyrrolo[2,3-c]pyridazin-3-yl}-2-methyl-1,3-benzothiazol-5-ol], for which the IC50 was less than 100 nM.

With `Cn1cc2cc(-c3cc4c(nn3)N([C@H]3CC(C)(C)NC(C)(C)[C@H]3F)CC4)c(O)c(F)c2n1` [Cpd 101, 7-fluoro-5-{7-[(3S,4S)-3-fluoro-2,2,6,6-tetramethylpiperidin-4-yl]-6,7-dihydro-5H-pyrrolo[2,3-c]pyridazin-3-yl}-2-methyl-2H-indazol-6-ol], the IC50 is less than 100 nM.

As to `Cn1nnc2cc(-c3cc4ccn([C@H]5CC(C)(C)NC(C)(C)[C@H]5F)c4nn3)c(O)cc21` [Cpd 41, 5-{7-[(3S,4S)-3-fluoro-2,2,6,6-tetramethylpiperidin-4-yl]-7H-pyrrolo[2,3-c]pyridazin-3-yl}-1-methyl-1H-benzotriazol-6-ol], the IC50 is less than 100 nM.

Turning to `CC1(C)C[C@H](n2ccc3cc(-c4cc5oc(=O)[nH]c5cc4O)nnc32)[C@H](F)C(C)(C)N1` [Cpd 36, 6-{7-[(3S,4S)-3-fluoro-2,2,6,6-tetramethylpiperidin-4-yl]-7H-pyrrolo[2,3-c]pyridazin-3-yl}-5-hydroxy-1,3-benzoxazol-2(3H)-one], the IC50 was less than 100 nM.

With `Cn1nnc2cc(O)c(-c3cc4ccn([C@H]5CC(C)(C)NC(C)(C)[C@H]5F)c4nn3)cc21` [Cpd 42, 6-{7-[(3S,4S)-3-fluoro-2,2,6,6-tetramethylpiperidin-4-yl]-7H-pyrrolo[2,3-c]pyridazin-3-yl}-1-methyl-1H-benzotriazol-5-ol], the IC50 was less than 100 nM.

`Cc1cnc2cc(-c3cc4ccn([C@H]5CC(C)(C)NC(C)(C)[C@H]5F)c4nn3)c(O)cc2n1` [Cpd 5, 7-{7-[(3S,4S)-3-fluoro-2,2,6,6-tetramethylpiperidin-4-yl]-7H-pyrrolo[2,3-c]pyridazin-3-yl}-3-methylquinoxalin-6-ol]: the IC50 is less than 100 nM.

Turning to `CC1(C)CC(n2nnc3cc(-c4cc5cccnc5cc4O)nnc32)CC(C)(C)N1` [Cpd 2, 6-[3-(2,2,6,6-tetramethylpiperidin-4-yl)-3H-[1,2,3]triazolo[4,5-c]pyridazin-6-yl]quinolin-7-ol], the half-maximal inhibitory concentration (IC50) lay within 1000 to 3000 nM.

Regarding `Cc1nc2cc(-c3cc4ccn([C@@H]5CCNC6(CCC6)[C@@H]5F)c4nn3)c(O)cc2s1` (single isomer, unassigned) [Cpd 34, 5-{7-[(8R,9R)-9-fluoro-5-azaspiro[3.5]nonan-8-yl]-7H-pyrrolo[2,3-c]pyridazin-3-yl}-2-methyl-1,3-benzothiazol-6-ol or 5-{7-[(8S,9S)-9-fluoro-5-azaspiro[3.5]nonan-8-yl]-7H-pyrrolo[2,3-c]pyridazin-3-yl}-2-methyl-1,3-benzothiazol-6-ol], the IC50 was 100 to 500 nM.

For `Cc1cnc2cc(-c3cc4c(nn3)N([C@H]3CC(C)(C)NC(C)(C)[C@H]3F)CC4)c(O)cc2c1` [Cpd 75, 7-{7-[(3S,4S)-3-fluoro-2,2,6,6-tetramethylpiperidin-4-yl]-6,7-dihydro-5H-pyrrolo[2,3-c]pyridazin-3-yl}-3-methylquinolin-6-ol], the IC50 is less than 100 nM.

In the case of `Oc1cc2nccnc2cc1-c1cc2c(nn1)N([C@H]1CCNC3(CC3)C1)CC2` [Cpd 49, 7-{7-[(7S)-4-azaspiro[2.5]octan-7-yl]-6,7-dihydro-5H-pyrrolo[2,3-c]pyridazin-3-yl}quinoxalin-6-ol], the IC50 is less than 100 nM.

For `Cc1cc(=O)c2cc(-c3cc4c(nn3)N([C@H]3CC(C)(C)NC(C)(C)[C@H]3F)CC4)c(O)cc2o1` [Cpd 68, 6-{7-[(3S,4S)-3-fluoro-2,2,6,6-tetramethylpiperidin-4-yl]-6,7-dihydro-5H-pyrrolo[2,3-c]pyridazin-3-yl}-7-hydroxy-2-methyl-4H-1-benzopyran-4-one], the IC50 is less than 100 nM.

Turning to `CCc1nc2cc(-c3cc4ccn([C@H]5CC(C)(C)NC(C)(C)[C@H]5F)c4nn3)c(O)cc2s1` [Cpd 14, 2-ethyl-5-{7-[(3S,4S)-3-fluoro-2,2,6,6-tetramethylpiperidin-4-yl]-7H-pyrrolo[2,3-c]pyridazin-3-yl}-1,3-benzothiazol-6-ol], the IC50 is less than 100 nM.

For the compound `Cn1ccc(=O)c2cc(-c3cc4ccn([C@H]5CC(C)(C)NC(C)(C)[C@H]5F)c4nn3)c(O)cc21` [Cpd 18, 6-{7-[(3S,4S)-3-fluoro-2,2,6,6-tetramethylpiperidin-4-yl]-7H-pyrrolo[2,3-c]pyridazin-3-yl}-7-hydroxy-1-methylquinolin-4(1H)-one], the IC50 was less than 100 nM.

On to `O=c1ccc2cc(-c3cc4c(nn3)N([C@H]3CCNC5(CC5)C3)CC4)c(O)cc2o1` [Cpd 59, 6-{7-[(7S)-4-azaspiro[2.5]octan-7-yl]-6,7-dihydro-5H-pyrrolo[2,3-c]pyridazin-3-yl}-7-hydroxy-2H-1-benzopyran-2-one], for which the IC50 is less than 100 nM.

Regarding `Cn1c(=O)cnc2cc(-c3cc4ccn([C@H]5CC(C)(C)NC(C)(C)[C@H]5F)c4nn3)c(O)cc21` [Cpd 26, 6-{7-[(3S,4S)-3-fluoro-2,2,6,6-tetramethylpiperidin-4-yl]-7H-pyrrolo[2,3-c]pyridazin-3-yl}-7-hydroxy-1-methylquinoxalin-2(1H)-one], the concentration for half-maximal inhibition (IC50) was less than 100 nM.

For `Cc1cnc2cc(-c3cc4c(nn3)N([C@H]3CC(C)(C)NC(C)(C)[C@H]3F)CC4)c(O)cc2n1` [Cpd 56, 7-{7-[(3S,4S)-3-fluoro-2,2,6,6-tetramethylpiperidin-4-yl]-6,7-dihydro-5H-pyrrolo[2,3-c]pyridazin-3-yl}-3-methylquinoxalin-6-ol], the IC50 was less than 100 nM.

For `Cc1nc2cc(-c3cc4ncn([C@H]5CC(C)(C)NC6(CC6)C5)c4nn3)c(O)cc2o1` [Cpd 23, 5-{7-[(7S)-5,5-dimethyl-4-azaspiro[2.5]octan-7-yl]-7H-imidazo[4,5-c]pyridazin-3-yl}-2-methyl-1,3-benzoxazol-6-ol], the IC50 lay within 100 to 500 nM.

Regarding `Cc1cnc2cc(O)c(-c3cc4c(nn3)N([C@H]3CC(C)(C)NC(C)(C)[C@H]3F)CC4)cc2n1` [Cpd 55, 7-{7-[(3S,4S)-3-fluoro-2,2,6,6-tetramethylpiperidin-4-yl]-6,7-dihydro-5H-pyrrolo[2,3-c]pyridazin-3-yl}-2-methylquinoxalin-6-ol], the IC50 was less than 100 nM.

Consider `Cc1nc2cc(-c3cc4c(nn3)N([C@H]3CC(C)(C)NC(C)(C)[C@H]3F)CC4)c(O)c(F)c2o1` [Cpd 103, 7-fluoro-5-{7-[(3S,4S)-3-fluoro-2,2,6,6-tetramethylpiperidin-4-yl]-6,7-dihydro-5H-pyrrolo[2,3-c]pyridazin-3-yl}-2-methyl-1,3-benzoxazol-6-ol], for which the IC50 is less than 100 nM.
